Patent US11066445B2, “Immunomodulators acting as antagonists of PD-1” (Bristol-Myers Squibb Company, priority 2017, dated 2021)
Starred links: 1 amine or outer side, 2 acyl side, 3 side chain; linkers in the order of their positions; H or OH if unused. Positions of bridges follow the written chain, without caps; N, C: chain ends. Non-standard residues stand in square brackets, D forms with d. Residues, ends and D or L forms follow the SMILES beside them. *: point of attachment. X3 = O=C(O)CCCCCCCCCCCCCCCCC(=O)N[C@@H](CCC(=O)NCCCOCCOCCOCCCN*)C(=O)O; Trp(1-CH2CONHSO2Me) = CS(=O)(=O)NC(=O)Cn1cc(C[C@H](N)C(=O)O)c2ccccc21; X1 = O=C(O)CCCCCCCCCCCCCCC(=O)N[C@@H](CCC(=O)NCCCOCCOCCOCCCN*)C(=O)O; Trp(4-aza,1-CH2COOH) = N[C@@H](Cc1cn(CC(=O)O)c2cccnc12)C(=O)O; Trp(7-aza,1-CH2COOH) = N[C@@H](Cc1cn(CC(=O)O)c2ncccc12)C(=O)O; Trp(1-CH2CO2Me) = COC(=O)Cn1cc(C[C@H](N)C(=O)O)c2ccccc21; X6 = COc1ccc2c(c1)c(C[C@H](N[*:1])C(=O)[*:2])cn2CC(=O)O; X2 = O=C(O)Cn1cc(C[C@@H](N[*:1])C(=O)[*:2])c2cccnc21; X4 = O=C(O)Cn1nc(C[C@H](N[*:1])C(=O)[*:2])c2ccccc21; d(cisHyp) = O=C(O)[C@H]1C[C@@H](O)CN1; Hyp = O=C(O)[C@@H]1C[C@@H](O)CN1; NMeNle = CCCC[C@H](NC)C(=O)O; NMeA = CN[C@@H](C)C(=O)O; Dab = NCC[C@H](N)C(=O)O; Dap = NC[C@H](N)C(=O)O; Sar = CNCC(=O)O

Biological target: T1, PD-1-Ig binding to PD-L1-TVMV-His (PD-L1-His) (Homo sapiens, UniProt Q9NZQ7)
T1 construct: hPDL1(19-239)-TVMV-His; TVMV protease cleavage site (C); made in house; host or cells: HEK293T cells
Assay: PD-1/PD-L1 Homogenous Time-Resolved Fluorescence (HTRF) binding assay
Conditions: PD-1-Ig (20 nM) / PD-L1-His (10 nM); range classes; read-out: LE HTRF hPD1 hPDL1 IC50
Text: Methods for Testing the Ability of Macrocyclic Peptides to Compete for the Binding of Pd-1 to Pd-L1 Using Homogenous Time-Resolved Fluorescence (HTRF) Binding Assays
The ability of the macrocyclic peptides of the present disclosure to bind to PD-L1 was investigated using a PD-1/PD-L1 Homogenous Time-Resolved Fluorescence (HTRF) binding assay.
Homogenous Time-Resolved Fluorescence (HTRF) Assays of Binding of Soluble PD-1 to Soluble PD-L1. Soluble PD-1 and soluble PD-L1 refers to proteins with carboxyl-end truncations that remove the transmembrane-spanning regions and are fused to heterologous sequences, specifically the Fc portion of the human immunoglobuling G sequence (Ig) or the hexahistidine epitope tag (His). All binding studies were performed in an HTRF assay buffer consisting of dPBS supplemented with 0.1% (w/v) bovine serum albumin and 0.05% (v/v) Tween-20. For the PD-1-Ig/PD-L1-His binding assay, inhibitors were pre-incubated with PD-L1-His (10 nM final) for 15 m in 4 μl of assay buffer, followed by addition of PD-1-Ig (20 nM final) in 1 μl of assay buffer and further incubation for 15 m. PD-L1 fusion proteins from either human, cynomologous macaques, mouse, or other species were used. HTRF detection was achieved using europium crypate-labeled anti-Ig monoclonal antibody (1 nM final) and allophycocyanin (APC) labeled anti-His monoclonal antibody (20 nM final). Antibodies were diluted in HTRF detection buffer and 5 μl was dispensed on top of binding reaction. The reaction was allowed to equilibrate for 30 minutes and signal (665 nm/620 nm ratio) was obtained using an EnVision fluorometer. Additional binding assays were established between PD-1-Ig/PD-L2-His (20 and 5 nM, respectively), CD80-His/PD-L1-Ig (100 and 10 nM, respectively) and CD80-His/CTLA4-Ig (10 and 5 nM, respectively). Binding/competition studies between biotinylated Compound No. 71 and human PD-L1-His were performed as follows. Macrocyclic peptide inhibitors were pre-incubated with PD-L1-His (10 nM final) for 60 minutes in 4 μl of assay buffer followed by addition of biotinylated Compound No. 71 (0.5 nM final) in 1 μl of assay buffer. Binding was allowed to equilibrate for 30 minutes followed by addition of europium crypated labeled Streptavidin (2.5 pM final) and APC-labeled anti-His (20 nM final) in 5 μl of HTRF buffer. The reaction was allowed to equilibrate for 30 m and signal (665 nm/620 nm ratio) was obtained using an EnVision fluorometer.
Recombinant Proteins. Carboxyl-truncated human PD-1 (amino acids 25-167) with a C-terminal human Ig epitope tag [hPD-1 (25-167)-3S-IG] and human PD-L1 (amino acids 18-239) with a C-terminal His epitope tag [hPD-L1(19-239)-tobacco vein mottling virus protease cleavage site (TVMV)-His] were expressed in HEK293T cells and purified sequentially by recombinant Protein A affinity chromatography and size exclusion chromatography. Human PD-L2-His (Sino Biologicals), CD80-His (Sino Biologicals), CTLA4-Ig (RnD Systems) were all obtained through commercial sources.
Ranges are as follows: A=0.010-0.060 μM; B=0.0011-0.009 μM; C=0.0003-0.0010 μM.

T1 sequence (Q9NZQ7 with tags, fused parts or gaps): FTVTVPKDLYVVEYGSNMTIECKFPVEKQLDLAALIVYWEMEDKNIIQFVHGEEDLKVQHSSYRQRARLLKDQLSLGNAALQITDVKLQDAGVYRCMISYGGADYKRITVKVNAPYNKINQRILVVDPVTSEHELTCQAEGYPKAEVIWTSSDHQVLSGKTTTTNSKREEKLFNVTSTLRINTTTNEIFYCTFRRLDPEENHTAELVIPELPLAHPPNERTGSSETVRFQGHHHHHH

SMILES	IC50
CCCC[C@H]1C(=O)N(C)[C@@H](CCCC)C(=O)N[C@@H](CC(C)C)C(=O)N[C@H](C(=O)NCC(=O)N[C@@H](CC(=O)NCCCOCCOCCOCCCNC(=O)CC[C@H](NC(=O)CCCCCCCCCCCCCCCCC(=O)O)C(=O)O)C(=O)O)CSCC(=O)N[C@@H](Cc2ccc(O)cc2)C(=O)N(C)[C@@H](C)C(=O)N[C@@H](CC(N)=O)C(=O)N2CCC[C@H]2C(=O)N[C@@H](CN)C(=O)N[C@@H](CC(C)C)C(=O)N2C[C@H](O)C[C@H]2C(=O)N[C@@H](Cc2c[nH]c3ccccc23)C(=O)N[C@@H](CCN)C(=O)N[C@H](Cc2cn(CC(=O)O)c3ncccc23)C(=O)N1C [Example 14] ({CH2CO}-Y[NMeA]NP[Dap]L[Hyp]W[Dab][X2][NMeNle][NMeNle]LCGD(X3)-OH; thioether N-14)	10 to 60 nM
CCCC[C@H]1C(=O)N(C)[C@@H](CCCC)C(=O)N[C@@H](CC(C)C)C(=O)N[C@H](C(=O)NCC(=O)N[C@@H](CC(=O)NCCCOCCOCCOCCCNC(=O)CC[C@H](NC(=O)CCCCCCCCCCCCCCC(=O)O)C(=O)O)C(=O)O)CSCC(=O)N[C@@H](Cc2ccc(O)cc2)C(=O)N(C)[C@@H](C)C(=O)N[C@@H](CC(N)=O)C(=O)N2CCC[C@H]2C(=O)N[C@@H](CN)C(=O)N[C@@H](CC(C)C)C(=O)N2C[C@H](O)C[C@H]2C(=O)N[C@@H](Cc2c[nH]c3ccccc23)C(=O)N[C@@H](CCN)C(=O)N[C@@H](Cc2cn(CC(=O)O)c3cccnc23)C(=O)N1C [Example 18] ({CH2CO}-Y[NMeA]NP[Dap]L[Hyp]W[Dab][Trp(4-aza,1-CH2COOH)][NMeNle][NMeNle]LCGD(X1)-OH; thioether N-14)	10 to 60 nM
CCCC[C@H]1C(=O)N(C)[C@@H](CCCC)C(=O)N[C@@H](CC(C)C)C(=O)N[C@H](C(=O)NCC(=O)N[C@@H](CC(=O)NCCCOCCOCCOCCCNC(=O)CC[C@H](NC(=O)CCCCCCCCCCCCCCC(=O)O)C(=O)O)C(=O)O)CSCC(=O)N[C@@H](Cc2ccc(O)cc2)C(=O)N(C)[C@@H](C)C(=O)N[C@@H](CC(N)=O)C(=O)N2CCC[C@H]2C(=O)N[C@@H](CN)C(=O)N[C@@H](CC(C)C)C(=O)N2C[C@H](O)C[C@H]2C(=O)N[C@@H](Cc2c[nH]c3ccccc23)C(=O)N[C@@H](CCN)C(=O)N[C@@H](Cc2cn(CC(=O)O)c3ncccc23)C(=O)N1C [Example 19] ({CH2CO}-Y[NMeA]NP[Dap]L[Hyp]W[Dab][Trp(7-aza,1-CH2COOH)][NMeNle][NMeNle]LCGD(X1)-OH; thioether N-14)	1.1 to 9 nM
CCCC[C@H]1C(=O)N(C)[C@@H](CCCC)C(=O)N[C@@H](CC(C)C)C(=O)N[C@H](C(=O)NCC(=O)N[C@@H](CC(=O)NCCCOCCOCCOCCCNC(=O)CC[C@H](NC(=O)CCCCCCCCCCCCCCC(=O)O)C(=O)O)C(=O)O)CSCC(=O)N[C@@H](Cc2ccc(O)cc2)C(=O)N(C)[C@@H](C)C(=O)N[C@@H](CC(N)=O)C(=O)N2CCC[C@H]2C(=O)N[C@@H](CN)C(=O)N[C@@H](CC(C)C)C(=O)N2C[C@H](O)C[C@H]2C(=O)N[C@@H](Cc2c[nH]c3ccccc23)C(=O)N[C@@H](CCN)C(=O)N[C@H](Cc2cn(CC(=O)O)c3ncccc23)C(=O)N1C [Example 20] ({CH2CO}-Y[NMeA]NP[Dap]L[Hyp]W[Dab][X2][NMeNle][NMeNle]LCGD(X1)-OH; thioether N-14)	10 to 60 nM
CCCC[C@H]1C(=O)N(C)[C@@H](CCCC)C(=O)N[C@@H](CC(C)C)C(=O)N[C@H](C(=O)NCC(=O)N[C@@H](CC(=O)NCCCOCCOCCOCCCNC(=O)CC[C@H](NC(=O)CCCCCCCCCCCCCCC(=O)O)C(=O)O)C(=O)O)CSCC(=O)N[C@@H](Cc2ccc(O)cc2)C(=O)N(C)[C@@H](C)C(=O)N[C@@H](CC(N)=O)C(=O)N2CCC[C@H]2C(=O)N[C@@H](CN)C(=O)N[C@@H](CC(C)C)C(=O)N2C[C@H](O)C[C@H]2C(=O)N[C@@H](Cc2c[nH]c3ccccc23)C(=O)N[C@@H](CCN)C(=O)N[C@@H](Cc2cn(CC(=O)O)c3ccc(OC)cc23)C(=O)N1C [Example 21] ({CH2CO}-Y[NMeA]NP[Dap]L[Hyp]W[Dab][X6][NMeNle][NMeNle]LCGD(X1)-OH; thioether N-14)	1.1 to 9 nM

Results, then the molecule that gave them:

IC50	SMILES
1.1 to 9 nM	CCCC[C@H]1C(=O)N(C)[C@@H](CCCC)C(=O)N[C@@H](CC(C)C)C(=O)N[C@H](C(=O)NCC(=O)N[C@@H](CC(=O)NCCCOCCOCCOCCCNC(=O)CC[C@H](NC(=O)CCCCCCCCCCCCCCCCC(=O)O)C(=O)O)C(=O)O)CSCC(=O)N[C@@H](Cc2ccc(O)cc2)C(=O)N(C)[C@@H](C)C(=O)N[C@@H](CC(N)=O)C(=O)N(C)CC(=O)N[C@@H](CN)C(=O)N[C@@H](CC(C)C)C(=O)N2C[C@H](O)C[C@@H]2C(=O)N[C@@H](Cc2c[nH]c3ccccc23)C(=O)N[C@@H](CCN)C(=O)N[C@@H](Cc2cn(CC(=O)OC)c3ccccc23)C(=O)N1C [Example 10] ({CH2CO}-Y[NMeA]N[Sar][Dap]L[d(cisHyp)]W[Dab][Trp(1-CH2CO2Me)][NMeNle][NMeNle]LCGD(X3)-OH; thioether N-14)
0.3 to 1 nM	CCCC[C@H]1C(=O)N(C)[C@@H](CCCC)C(=O)N[C@@H](CC(C)C)C(=O)N[C@H](C(=O)NCC(=O)N[C@@H](CC(=O)NCCCOCCOCCOCCCNC(=O)CC[C@H](NC(=O)CCCCCCCCCCCCCCCCC(=O)O)C(=O)O)C(=O)O)CSCC(=O)N[C@@H](Cc2ccc(O)cc2)C(=O)N(C)[C@@H](C)C(=O)N[C@@H](CC(N)=O)C(=O)N2CCC[C@H]2C(=O)N[C@@H](CN)C(=O)N[C@@H](CC(C)C)C(=O)N2C[C@H](O)C[C@H]2C(=O)N[C@@H](Cc2c[nH]c3ccccc23)C(=O)N[C@@H](CCN)C(=O)N[C@@H](Cc2cn(CC(=O)O)c3ccc(OC)cc23)C(=O)N1C [Example 12] ({CH2CO}-Y[NMeA]NP[Dap]L[Hyp]W[Dab][X6][NMeNle][NMeNle]LCGD(X3)-OH; thioether N-14)
1.1 to 9 nM	CCCC[C@H]1C(=O)N(C)[C@@H](CCCC)C(=O)N[C@@H](CC(C)C)C(=O)N[C@H](C(=O)NCC(=O)N[C@@H](CC(=O)NCCCOCCOCCOCCCNC(=O)CC[C@H](NC(=O)CCCCCCCCCCCCCCC(=O)O)C(=O)O)C(=O)O)CSCC(=O)N[C@@H](Cc2ccc(O)cc2)C(=O)N(C)[C@@H](C)C(=O)N[C@@H](CC(N)=O)C(=O)N2CCC[C@H]2C(=O)N[C@@H](CN)C(=O)N[C@@H](CC(C)C)C(=O)N2C[C@H](O)C[C@H]2C(=O)N[C@@H](Cc2c[nH]c3ccccc23)C(=O)N[C@@H](CCN)C(=O)N[C@@H](Cc2cn(CC(=O)NS(C)(=O)=O)c3ccccc23)C(=O)N1C [Example 15] ({CH2CO}-Y[NMeA]NP[Dap]L[Hyp]W[Dab][Trp(1-CH2CONHSO2Me)][NMeNle][NMeNle]LCGD(X1)-OH; thioether N-14)
1.1 to 9 nM	CCCC[C@H]1C(=O)N(C)[C@@H](CCCC)C(=O)N[C@@H](CC(C)C)C(=O)N[C@H](C(=O)NCC(=O)N[C@@H](CC(=O)NCCCOCCOCCOCCCNC(=O)CC[C@H](NC(=O)CCCCCCCCCCCCCCC(=O)O)C(=O)O)C(=O)O)CSCC(=O)N[C@@H](Cc2ccc(O)cc2)C(=O)N(C)[C@@H](C)C(=O)N[C@@H](CC(N)=O)C(=O)N2CCC[C@H]2C(=O)N[C@@H](CN)C(=O)N[C@@H](CC(C)C)C(=O)N2C[C@H](O)C[C@H]2C(=O)N[C@@H](Cc2c[nH]c3ccccc23)C(=O)N[C@@H](CCN)C(=O)N[C@@H](Cc2cn(CC(=O)OC)c3ccccc23)C(=O)N1C [Example 16] ({CH2CO}-Y[NMeA]NP[Dap]L[Hyp]W[Dab][Trp(1-CH2CO2Me)][NMeNle][NMeNle]LCGD(X1)-OH; thioether N-14)
1.1 to 9 nM	CCCC[C@H]1C(=O)N(C)[C@@H](CCCC)C(=O)N[C@@H](CC(C)C)C(=O)N[C@H](C(=O)NCC(=O)N[C@@H](CC(=O)NCCCOCCOCCOCCCNC(=O)CC[C@H](NC(=O)CCCCCCCCCCCCCCC(=O)O)C(=O)O)C(=O)O)CSCC(=O)N[C@@H](Cc2ccc(O)cc2)C(=O)N(C)[C@@H](C)C(=O)N[C@@H](CC(N)=O)C(=O)N2CCC[C@H]2C(=O)N[C@@H](CN)C(=O)N[C@@H](CC(C)C)C(=O)N2C[C@H](O)C[C@H]2C(=O)N[C@@H](Cc2c[nH]c3ccccc23)C(=O)N[C@@H](CCN)C(=O)N[C@@H](Cc2nn(CC(=O)O)c3ccccc23)C(=O)N1C [Example 17] ({CH2CO}-Y[NMeA]NP[Dap]L[Hyp]W[Dab][X4][NMeNle][NMeNle]LCGD(X1)-OH; thioether N-14)
